# According to the supplement of paper PMC10599287:
# What was measured:
# GDC-0623 = compound: O=C(NOCCO)c1ccc2cncn2c1Nc1ccc(I)cc1F [GDC-0623]; assay: absolute IC70 (antiproliferative, propidium iodide); higher = less potent; conditions: exposure time: 4 days
# Experimental: (§1)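 Modified propidium iodide survival/proliferation assay in 294 human tumor cell lines (2D monolayer for solid tumors, suspension for hematologic lines) after 4 days of continuous exposure to 10 concentrations in half-log steps from 0.001 to 30 µM. Absolute IC70 was fitted by four-parameter nonlinear regression of T/C × 100 (%) values; 30 µM is the top dose.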
# [1] = compound: CCNC(=O)C#Cc1ccc2c(C(=Nc3ccc(CN(C)C)cc3)c3ccccc3)c(O)[nH]c2c1; assay: as above; conditions: exposure time: 4 days
# Experimental: as §1
Test System,absolute IC70 (GDC-0623) [nM],absolute IC70 [1] [nM]
MEXF_1737,11,48
MEXF_1792,169,462
MEXF_1829,19,90
MEXF_2090,4,93
MFE-319,5170,370
MIA-PaCa-2,5,103
MINO,> 30000,10
MKN1,> 30000,289
MKN7,> 30000,17500
MKN45,79,489
MM.1R,> 30000,23
MM.1S,> 30000,9
MOLM-1,> 30000,1590
MOLM-6,41,9
MOLM-13,448,8
MOLP-2,> 30000,3650
MOLT-3,> 30000,6
MOLT-4,> 30000,4
MSTO-211H,1480,494
MV4-11,1320,8
NALM-33,> 30000,7
NCI-H69,> 30000,1340
NCI-H82,> 30000,2330

Test System,absolute IC70 (GDC-0623) [nM],absolute IC70 [1] [nM]
NCI-H322M,105,391
NCI-H345,> 30000,11800
NCI-H441,> 30000,1340
NCI-H460,> 30000,11
NCI-H522,30000,102
NCI-H727,23,325
NCI-H929,10,43
NCI-H1184,> 30000,815
NCI-H1299,> 30000,1180
NCI-H1975,> 30000,409
NCI-H2171,> 30000,24
NOMO-1,> 30000,10
NUGC-4,8,329
OCI-AML2,< 1,7
OCI-AML3,< 1,6
OCI-LY18,> 30000,494
OCUM-1,11,25
OE21,> 30000,2210
OPM-2,> 30000,336
OVCAR-3,> 30000,26100
OVCAR-4,> 30000,4280
OVCAR-5,367,694
OVCAR-8,> 30000,2800

Test System,absolute IC70 (GDC-0623) [nM],absolute IC70 [1] [nM]
OVXF_899,14700,457
OVXF_1023,> 30000,14200
PA-TU-8902,> 30000,913
PA-TU-8988T,> 30000,773
PANC-1,> 30000,5080
PAXF_546,> 30000,12200
PAXF_1657,260,564
PAXF_1986,92,414
PAXF_1998,> 30000,4620
PAXF_2035,17200,855
PC-3M,> 30000,161
PC-9,> 30000,622
PL-21,365,338
PXF_698,> 30000,301
PXF_1118,> 30000,1550
PXF_1752,> 30000,1860
RAJI,> 30000,4790
RAMOS,> 30000,507
RCH-ACV,> 30000,6
RD-ES,> 30000,77
RH-30,24600,794
RH-41,> 30000,606
RKO,125,21

Test System,absolute IC70 (GDC-0623) [nM],absolute IC70 [1] [nM]
RPMI-2650,> 30000,2150
RPMI-8226,> 30000,1580
RT112,> 30000,42
RXF_393,15100,869
RXF_486,239,816
RXF_1183,102,949
RXF_1220,> 30000,4720
RXF_1781,7380,309
RXF_2282,> 30000,26
RXF_2516,8070,164
SCLC-21H,> 30000,31
SD1,> 30000,4
SF268,> 30000,1330
SF295,> 30000,8840
SISO,> 30000,715
SK-BR-3,> 30000,4070
SK-GT-2,> 30000,2800
SK-LMS-1,368,937
SK-MES-1,235,617
SK-OV-3,> 30000,13400
SK-UT-1B,5790,1400
SN12C,2960,665
SNB-75,2680,1100

Test System,absolute IC70 (GDC-0623) [nM],absolute IC70 [1] [nM]
SNU-1,> 30000,3000
SNU-16,> 30000,15400
SNU-423,> 30000,1320
SNU-449,2220,3200
SNU-475,> 30000,3550
SNU-601,> 30000,3000
SNU-620,> 30000,225
SNU-739,> 30000,1380
SNU-878,18800,9320
SNU-899,35,515
SR,> 30000,13
SU-DHL-1,> 30000,406
SU-DHL-4,> 30000,220
SW403,7.71,841
SW480,23.9,101
SW579,204,279
SW620,10,69
SW948,> 30000,3000
SW1463,14.3,323
SW1710,3740,525
SXFO_678,> 30000,87
SXFS_1301,> 30000,3850
Saos-2,> 30000,593

Test System,absolute IC70 (GDC-0623) [nM],absolute IC70 [1] [nM]
SiHa,> 30000,4800
T24,46,353
T47D,> 30000,6840
TE671,> 30000,1360
TFK-1,> 30000,3450
THP-1,47,84
TK10,> 30000,873
TT2609-C02,12,18
U-2-OS,530,162
U-251MG,783,1180
U-266,> 30000,1700
U-937,> 30000,348
U-2197,> 30000,2770
UO-31,1620,527
UOC-M1,> 30000,12
UXF_1138,> 30000,6
VCAP,> 30000,5020
WSU-DLCL2,> 30000,892
